Positions count from the first letter of the chain named. Where no end group is shown, it is not given here. [ ]: non-standard residue; d: D form. pY = N[C@@H](Cc1ccc(OP(=O)(O)O)cc1)C(=O)O
T1: MBP-STAT5b-SH2 (Homo sapiens, UniProt P51692)
T1 sequence (P51692 589-686 limits assumed): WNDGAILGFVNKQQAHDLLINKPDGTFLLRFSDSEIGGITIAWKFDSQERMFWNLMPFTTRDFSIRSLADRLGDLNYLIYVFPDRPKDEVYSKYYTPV

T2: MBP-STAT5b-SH2 (Homo sapiens, UniProt P51692, N642A)
T2 sequence (P51692 589-686 N642A limits assumed): T1 sequence (P51692 589-686 limits assumed) with N54A

T3: MBP-STAT5b-SH2 N642A (human, UniProt P51692 589-686, N642A)
T3 construct: STAT5b, SH2 domain with N642A; Same construct as m1 apart from the mutation; also called STAT5b-N642A; mutant STAT5b-N642A; source: generated by site-directed mutagenesis
T3 sequence (looked up): T1 sequence (P51692 589-686 limits assumed) with N54A

T4: STAT5b-SH2 domain fused to maltose-binding protein (MBP) (human, UniProt P51692 589-686)
T4 construct: STAT5b, SH2 domain; also called MBP-STAT5b-SH2; MBP-STAT5b; source: recombinantly expressed
T4 sequence (looked up): T1 sequence (P51692 589-686 limits assumed)

B1: carboxyfluoresceine-labeled phosphotyrosine octapeptide 1 (peptide)
chain: G[pY]LSLPPW
modifications: not fully specified (N-terminus); also: carboxyfluorescein label, place not given here

How the values were obtained:
MBP-STAT5b-SH2 [1] = target: T1, MBP-STAT5b-SH2; assay: biochemical; set-up: fluorescence polarization competition with carboxyfluorescein-labelled phosphopeptide on MBP-STAT5b-SH2
Procedure: 24 sealed with optical seal, shaken for 15 min, and centrifuged. Thermal scanning (20 to 95°C at 1°C/min) was performed using a real-time PCR setup (Light Cycler, Roche Diagnostics, Mannheim, Germany) and fluorescence intensity was measured after every 0.3 s. Curve fitting, melting temperature calculation and report generation on the raw data were performed using GraphPad Prism 5 software. Fluorescence polarization assays and screening Ca. 17000 compounds and fragments from the ChemBioNet library were tested in a fluorescence polarization (FP) assay to investigate their ability to bind to STAT5b-SH2 domain by displacing the fluorophore-labeled peptide 5-carboxyfluorescein-GY (PO3H2) LSLPPW-NH2 1. Purified compounds were tested in the same assay. The peptide purity was >95% and the assays were performed at room temperature. The final concentration of buffer components used was 10 mM HEPES (pH 7.5), 1 mM EDTA, 0.1% Igepal CA-630, 50 mM NaCl, and 5% DMSO and the final concentration of protein used was at 125 nM. The protein was first added to the black 384-well plate (Corning cat.CLS3676, Sigma Aldrich, Taufkirchen, Germany) followed by test compounds and fluorophore-labeled peptide. The plates were centrifuged, and measured using Safire2 well plate reader (Tecan, Crailsheim, Germany) after 15 min incubation at room temperature. For testing secondary site binding of primary hit fragments, the same assay was conducted in the presence of 4-formylphenyl phosphate 2 as described earlier. For specificity analysis, FP assay was conducted with 100 nM GST-tagged, full length human STAT3 protein (cat. S54-54G-50, SignalChem, Richmond, BC, Canada) and 10 nM fluorophore-labeled peptides (5-carboxyfluorescein-GY (PO3H2) LPQTV-NH2). […] Ligands with such high ligand efficiency are rather found for enzymatic binding pockets than for protein–protein interaction sites and thus fragment 3 was selected for further validation. Binding of 3 to STAT5b-SH2 was confirmed using the thermofluor assay[28],[29], a thermal shift assay (TSA), as an independent biophysical assay. Binding of fragment 3 augmented the melting point of STAT5 by ΔTm of 3 °C (Supplementary Figure 1). Potential binding modes of the phosphotyrosine 2 and the fragment hit 3 were scrutinized using a homology model of STAT5b derived from the crystal structure of STAT5a (PDB:1Y1U [10.2210/pdb1Y1U/pdb]) for molecular docking (Fig. 1b, c)[30]. The phosphotyrosine binding site in the STAT5-SH2 domain is shallow compared with the deeper binding pockets of PTP[31],[32], coordinating phenyl phosphate 2 by only two amino-acid residues, Arg618 and Ser622. As a result, the benzene ring of 2 is not buried in a cavity like in the case of PTPs but rather exposed to the solvent at the protein surface.

MBP-STAT5b-SH2 [2] = target: T1, MBP-STAT5b-SH2; assay: fluorescence polarization competition with peptide […]; format: binding; settings: […] MOPS pH […], room temperature; competitive
MBP-STAT5b-SH2 [3] = target: T2, MBP-STAT5b-SH2; assay: as above; format: binding; settings: […] MOPS pH […], room temperature; competitive
MBP-STAT5b-SH2 [4] = target: T1, MBP-STAT5b-SH2; assay: as above; format: binding; settings: […] MOPS pH […], room temperature; competitive; remark: listed apart in the source
MBP-STAT5b-SH2 N642A = target: T3, MBP-STAT5b-SH2 N642A; assay: fluorescence polarisation; MBP-STAT5b-SH2 with peptide 1 (10 nM), 50 mM MOPS buffer pH 7.4, room temperature, 20 µl; settings: both partners purified
[5] = target: T4, STAT5b-SH2 domain fused to …; assay: as above; settings: both partners purified

Row | Molecule | Ki (MBP-STAT5b-SH2 [1]) [µM] | Ki (MBP-STAT5b-SH2 [4]) [µM] | also measured
1 | c1nnn[nH]1 [compound 25, 1H-tetrazole] | > 2500 |  | 
2 | O=C(Cn1cnnn1)Nc1nonc1C(=O)O [compound 5, 4-(2-(1H-tetrazol-1-yl)-acetamido)-1,2,5-oxadiazole-3-carboxylic acid] | > 2500 |  | 
3 | O=C(O)c1nonc1NCn1cnnn1 [compound 10, 4-(Tetrazolyl-1-methylamino)-furazan-3-carboxylic acid] |  |  | IC50 (MBP-STAT5b-SH2 [2]): 1.5 µM; IC50 (MBP-STAT5b-SH2 [3]): 30 µM
4 | O=Cc1ccc(OP(=O)(O)O)cc1 [compound 2, 4-formylphenyl phosphate] | > 2500 |  | 
5 | O=C(O)c1nonc1NCn1nnnc1-c1cccc(F)c1 [compound 13, 5-(3-fluorophenyl) 13] |  | 0.6 | 
6 | c1ccc(Cc2nn[nH]n2)cc1 [compound 26, benzyl-tetrazole] | > 2500 |  | 
7 | O=C(O)c1nonc1NCn1nnnc1-c1ccccc1 [compound 11, 4-(5-phenyl-tetrazol-1-yl-methylamino)-furazane-3-carboxylate] |  | 1.4 | 
8 | O=C(O)c1nonc1NCn1cccn1 [compound 8, pyrazol-1-yl 8] |  | 122 ± 25 | 
9 | O=C(O)c1nonc1NCn1nnnc1-c1cccc(C(F)(F)F)c1 [compound 12, 5-(3-trifluoromethyl-phenyl)-12] |  | 0.9 | 
10 | B1 |  |  | Kd (MBP-STAT5b-SH2 N642A): ~5 µM; Kd [5]: 0.055 µM
